According to the NIST ThermoML archive (doi:10.1016/j.fluid.2010.04.016):
± gives the expanded uncertainty stated by the source.

Conditions: Crystal; visual observation

Normal melting temperature | Compound
7.04 ± 0.16 °C | CCCCCCCCCCO [decan-1-ol]
-15.4 ± 0.16 °C | CCCCCCCCO [octan-1-ol]
